In US10442758B2, “Zinc or Copper (II) salt and use thereof as a biocide” (LABORATORIYA BIO ZET, LLC, priority 2013, dated 2019):

Columns and labels:
Assay type in all cases: cell-based
[1] = system: E. coli No. 906; assay: Bactericidal activity: bacterial culture exposed in salt solution, neutralized, inoculated on solid nutrient medium; conditions: time of exposure 30 min, concentration from 1.0 to 2.5%
Method: (§1) The determination is performed on E. coli No. 906 and S. aureus No. 1257 test strains being usually used to study the bactericidal activity of biocides as well as on clinical strains—P. aeruginosa and methicillin-resistant strain S. aureus—at salt concentrations from 0.5 to 2% and time of exposure from 5 to 60 min.
(§2) The same method as described in Example 9 is used to determine the bactericidal activity of ZMA against three of four strains studied in Example 9.

[2] = system: P. aeruginosa (clinical strain); assay: as above; conditions: for Bactericidal activity: growth of P. aeruginosa: 1.0 % wt., CFU in 1 ml
Method: as §1, §2

[3] = system: S. aureus No. 1257; assay: as above; conditions: for Bactericidal activity: growth of S. aureus test strain: CFU in 1 ml
Method: The determination is performed on E. coli No. 906 and S. aureus No. […]
as §2

[4] = system: E. coli No. 906, S. aureus No. 1257, P. aeruginosa, methicillin-resistant strain S. aureus; assay: Bactericidal activity, summary over the investigated strains
Method: as §1, §2

[5] = system: fungal spores; assay: Fungicidal activity according to GOST 30028.4-2006: resistance of treated material samples to fungal spores
[6] = test material paper impregnated with latex SKS 65 GP, additive content 0.5 % wt.
[7] = test material paper impregnated with petrolatum base, additive content 4.7 % wt.
[8] = test material polyvinyl chloride emulsion, additive content 0.5 % wt.

| Compound | bactericidal activity (in words) against E. coli No. 906 [1] | Bactericidal activity: growth of P. aeruginosa ([2]; exposure 30 min) [CFU] | bactericidal activity (in words) against P. aeruginosa ([2]; only at concentration from 2.5%) | Bactericidal activity: growth of S. aureus test strain ([3]; 2.5 % wt., exposure 30 min) [CFU] | Bactericidal activity: growth of S. aureus test strain ([3]; 5 % wt., exposure 5 min) [CFU] | bactericidal activity (in words) against S. aureus No. 1257 ([3]; only at concentration of 2.5% and time of exposure of 60 min) | bactericidal activity compared with the proposed salts ([4]; comparison of Table 3 with Table 2) | Tolerance time [5, 6] [days] | Tolerance time [5, 7] [days] | Tolerance time ([5]; test material polyvinyl chloride emulsion, additive content 5 % wt.) [days] | Tolerance time [5, 8] [days] | Bactericidal activity: growth of P. aeruginosa ([2]; exposure 5 min) [CFU] | Bactericidal activity: growth of S. aureus test strain ([3]; 1.0 % wt., exposure 15 min) [CFU] | bactericidal effect (in words) ([4]; concentration 1.0%, time of exposure from 30 min) |
| --- | --- | --- | --- | --- | --- | --- | --- | --- | --- | --- | --- | --- | --- | --- |
| C=C(C)C(=O)[O-].CC(=O)[O-].[Zn+2] [ZMA, zinc methacrylate-acetate] | stable bactericidal activity | >300 | not completely stable bactericidal activity | >300 | >300 | sub-bactericidal activity | substantially lower than that of the proposed salts | 12 | 16 | 22 |  |  |  |  |
| C=CC(=O)[O-].O=C([O-])c1ccccc1.[Zn+2] [Zinc acrylate-benzoate] |  |  |  |  |  |  |  |  |  |  | 11 |  |  |  |
| Zinc methacrylate-sulfosalicylate |  |  |  |  |  |  |  | 16 | 20 |  | 16 | 1 | >300 | stable bactericidal effect against three of four investigated strains |
